Source: PubChem BioAssay (NCI)
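Cultured in 96-well plates, cells were exposed to test compound for 48 hours across five concentrations. TGI is the concentration that stops growth completely.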

Key:
Assay in all cases: NCI-60 cell line screen, 48 h
LOX IMVI melanoma = tested on: LOX IMVI melanoma
SW-620 colon = tested on: SW-620 colon
OVCAR-3 ovarian = tested on: OVCAR-3 ovarian
NCI-H522 lung = tested on: NCI-H522 lung
RPMI-8226 leukemia = tested on: RPMI-8226 leukemia
SR leukemia = tested on: SR leukemia
PC-3 prostate = tested on: PC-3 prostate
NCI-H23 lung = tested on: NCI-H23 lung
EKVX NSCLC = tested on: EKVX NSCLC
U251 CNS = tested on: U251 CNS
SK-MEL-2 melanoma = tested on: SK-MEL-2 melanoma
CAKI-1 renal = tested on: CAKI-1 renal
SF-268 CNS = tested on: SF-268 CNS
HT29 colon = tested on: HT29 colon
SNB-19 CNS = tested on: SNB-19 CNS
OVCAR-5 ovarian = tested on: OVCAR-5 ovarian
MDA-MB-435 = tested on: MDA-MB-435
SK-MEL-5 melanoma = tested on: SK-MEL-5 melanoma
ACHN renal = tested on: ACHN renal
NCI-H460 lung = tested on: NCI-H460 lung
IGROV1 ovarian = tested on: IGROV1 ovarian
HS 578T breast = tested on: HS 578T breast
HCT-116 colon = tested on: HCT-116 colon
UACC-257 melanoma = tested on: UACC-257 melanoma
HOP-92 NSCLC = tested on: HOP-92 NSCLC
T-47D breast = tested on: T-47D breast
DU-145 prostate = tested on: DU-145 prostate
UO-31 renal = tested on: UO-31 renal
HL-60(TB) leukemia = tested on: HL-60(TB) leukemia
OVCAR-8 ovarian = tested on: OVCAR-8 ovarian
SF-539 CNS = tested on: SF-539 CNS
A498 renal = tested on: A498 renal
MALME-3M melanoma = tested on: MALME-3M melanoma
NCI/ADR-RES ovarian = tested on: NCI/ADR-RES ovarian
MCF7 breast = tested on: MCF7 breast
TK-10 renal = tested on: TK-10 renal
786-0 renal = tested on: 786-0 renal
HCC-2998 colon = tested on: HCC-2998 colon
KM12 colon = tested on: KM12 colon
OVCAR-4 ovarian = tested on: OVCAR-4 ovarian
SNB-75 CNS = tested on: SNB-75 CNS
COLO 205 colon = tested on: COLO 205 colon
A549 NSCLC = tested on: A549 NSCLC
SK-MEL-28 melanoma = tested on: SK-MEL-28 melanoma
CCRF-CEM leukemia = tested on: CCRF-CEM leukemia
HOP-62 NSCLC = tested on: HOP-62 NSCLC
UACC-62 melanoma = tested on: UACC-62 melanoma
MDA-MB-231 breast = tested on: MDA-MB-231 breast
MOLT-4 leukemia = tested on: MOLT-4 leukemia
SN12C renal = tested on: SN12C renal
SF-295 CNS = tested on: SF-295 CNS
HCT-15 colon = tested on: HCT-15 colon
MDA-N = tested on: MDA-N
M14 melanoma = tested on: M14 melanoma
SK-OV-3 ovarian = tested on: SK-OV-3 ovarian

CN1C(=O)c2ccccc2NC(=O)C12O[C@@H]2c1cccc(O)c1 (stereo partly specified)
TGI (LOX IMVI melanoma): > 100 µM
TGI (SW-620 colon): > 100 µM
TGI (OVCAR-3 ovarian): > 100 µM
TGI (NCI-H522 lung): > 100 µM
TGI (RPMI-8226 leukemia): > 100 µM
TGI (SR leukemia): > 100 µM
TGI (PC-3 prostate): > 100 µM
TGI (NCI-H23 lung): > 100 µM
TGI (EKVX NSCLC): > 100 µM
TGI (U251 CNS): > 100 µM
TGI (SK-MEL-2 melanoma): > 100 µM
TGI (CAKI-1 renal): > 100 µM
TGI (SF-268 CNS): > 100 µM
TGI (HT29 colon): > 100 µM
TGI (SNB-19 CNS): > 100 µM
TGI (OVCAR-5 ovarian): > 100 µM
TGI (MDA-MB-435): > 100 µM
TGI (SK-MEL-5 melanoma): > 100 µM
TGI (ACHN renal): > 100 µM
TGI (NCI-H460 lung): > 100 µM
TGI (IGROV1 ovarian): > 100 µM
TGI (HS 578T breast): > 100 µM
TGI (HCT-116 colon): > 100 µM
TGI (UACC-257 melanoma): > 100 µM
TGI (HOP-92 NSCLC): > 100 µM
TGI (T-47D breast): > 100 µM
TGI (DU-145 prostate): > 100 µM
TGI (UO-31 renal): > 100 µM
TGI (HL-60(TB) leukemia): > 100 µM
TGI (OVCAR-8 ovarian): > 100 µM
TGI (SF-539 CNS): > 100 µM
TGI (A498 renal): > 100 µM
TGI (MALME-3M melanoma): > 100 µM
TGI (NCI/ADR-RES ovarian): > 100 µM
TGI (MCF7 breast): > 100 µM
TGI (TK-10 renal): > 100 µM
TGI (786-0 renal): > 100 µM
TGI (HCC-2998 colon): > 100 µM
TGI (KM12 colon): > 100 µM
TGI (OVCAR-4 ovarian): > 100 µM
TGI (SNB-75 CNS): > 100 µM
TGI (COLO 205 colon): > 100 µM
TGI (A549 NSCLC): > 100 µM
TGI (SK-MEL-28 melanoma): > 100 µM
TGI (CCRF-CEM leukemia): > 100 µM
TGI (HOP-62 NSCLC): > 100 µM
TGI (UACC-62 melanoma): > 100 µM
TGI (MDA-MB-231 breast): > 100 µM
TGI (MOLT-4 leukemia): > 100 µM
TGI (SN12C renal): > 100 µM
TGI (SF-295 CNS): > 100 µM
TGI (HCT-15 colon): > 100 µM
TGI (MDA-N): > 100 µM
TGI (M14 melanoma): > 100 µM

COc1cc(/C=C2\CN(C)CC3=C2NC(=S)NC3c2cc(OC)c(OC)c(OC)c2)cc(OC)c1OC (stereo unspecified)
TGI (LOX IMVI melanoma): > 100 µM
TGI (SW-620 colon): > 100 µM
TGI (OVCAR-3 ovarian): > 100 µM
TGI (NCI-H522 lung): > 100 µM
TGI (SR leukemia): > 100 µM
TGI (PC-3 prostate): > 100 µM
TGI (EKVX NSCLC): > 100 µM
TGI (SK-MEL-2 melanoma): > 100 µM
TGI (SF-268 CNS): > 100 µM
TGI (HT29 colon): > 100 µM
TGI (SK-MEL-5 melanoma): 65.7 µM
TGI (ACHN renal): > 100 µM
TGI (NCI-H460 lung): > 100 µM
TGI (IGROV1 ovarian): > 100 µM
TGI (HS 578T breast): > 100 µM
TGI (UACC-257 melanoma): > 100 µM
TGI (HOP-92 NSCLC): > 100 µM
TGI (T-47D breast): > 100 µM
TGI (DU-145 prostate): > 100 µM
TGI (OVCAR-8 ovarian): > 100 µM
TGI (MALME-3M melanoma): > 100 µM
TGI (NCI/ADR-RES ovarian): > 100 µM
TGI (786-0 renal): > 100 µM
TGI (OVCAR-4 ovarian): > 100 µM
TGI (SNB-75 CNS): > 100 µM
TGI (COLO 205 colon): > 100 µM
TGI (A549 NSCLC): > 100 µM
TGI (HOP-62 NSCLC): > 100 µM
TGI (UACC-62 melanoma): > 100 µM
TGI (MDA-MB-231 breast): > 100 µM
TGI (MOLT-4 leukemia): > 100 µM
TGI (SN12C renal): > 100 µM
TGI (SF-295 CNS): > 100 µM
TGI (HCT-15 colon): > 100 µM
TGI (MDA-N): > 100 µM
TGI (M14 melanoma): > 100 µM
TGI (SK-OV-3 ovarian): > 100 µM
